Usually IC50 stands for the concentration that gives 50% inhibition. A lower IC50 goes with higher potency.

The assay in a line: Inhibition of Escherichia coli ATCase.

On to `NC(=O)CC(NC(=O)CP(=O)(O)O)C(=O)O` (stereo not given), for which the IC50 came out at 0.225 µM. That is a sub-micromolar value.
In the case of `O=C(CP(=O)(O)O)NC(C(=O)O)C(=O)O` it was 43.5 µM; in that of `CC(O)C(NC(=O)CP(=O)(O)O)C(=O)O` (stereo not given), 42 µM.
In the case of `O=C(CP(=O)(O)O)NC(CCO)C(=O)O` (stereo not given) it was 3.9 µM; in that of `NC(=O)C(CC(=O)O)NC(=O)CP(=O)(O)O` (stereo not given), 0.087 µM.
In the case of `O=C(CP(=O)(O)O)NC(Cc1ccc(O)cc1)C(=O)O` (stereo not given) it was 63 µM; in that of `O=C(CP(=O)(O)O)NC(CO)C(=O)O` (stereo not given), 30 µM.
For `O=C(CP(=O)(O)O)NC(CO)CO`, the IC50 worked out at 12500 µM.
The figure for `O=C(CP(=O)(O)O)NC(CO)CCO` (stereo not given) is 2900 µM; for `O=C(O)C[C@H](NC(=O)CP(=O)(O)O)C(=O)O` [PALA] it is 0.055 µM.

These data come from ChEMBL document CHEMBL1139180, “Design, synthesis, and bioactivity of novel inhibitors of E. coli aspartate transcarbamoylase” (Bioorg Med Chem Lett, 2007).
